Data taken from patent US9642856B2, “Treatment for pancreatic cancer” (University Health Network, priority 2013, dated 2017).

Legend:
[1] = test system: OCIP110 tumors; assay: OCIP110 orthotopic xenograft, Compound II alone or with Cisplatin; assay type: in vivo, SCID mice; details: Compound II 10 mg/kg 2-on/5-off schedule, 21 days
Method: OCIP110 tumors were implanted orthotopically onto the pancreas of 4-5 week old SCID mice. Tumor volume was evaluated by palpation and animals were randomized into treatment groups. Animals were treated with either Compound II on a 2-on/5-off schedule with 10 mg/kg, a weekly dose of 4 mg/kg Cisplatin or the combination treatment for 21 days. Tumor weight was evaluated when tumors were excised at the end of the treatment.

[2] = test system: patient-derived pancreatic xenograft models; assay: Orthotopic patient-derived pancreatic xenograft models, mono-therapy; assay type: in vivo, NOD/SCID mice
Text: 6 orthotopically implanted patient-derived pancreatic xenograft models with varying growth rates and levels of tumor hypoxia were used in order to investigate the efficiency of the Compound II as a mono-therapy or in combination with Gemcitabine.
The patient-derived pancreatic xenograft models were established by attaching a piece of the patient tumor on the pancreas of 4-5 week old Non-obese diabetic (NOD)/Severe combined immunodeficiency (SCID) mice. The xenograft models closely resemble the morphology of the patient specimen and represent the range of tumor morphologies described in pancreatic cancer patients.
Tumor volume was evaluated by palpation and animals were randomized into treatment groups. Animals were treated with Compound II using a daily dose of 7.5 mg/kg by oral gavage for 21 days for experiments evaluating activity as a mono-therapy, or with 13.5 mg/kg according to a 2-day-on-5-days-off schedule in combination bi-weekly 100 mg/kg Gemcitabine for 21 days.
Tumor weight after completion of the treatment and overall survival were evaluated. Immunofluorescence (IF) staining of xenograft sections was used to evaluate tumor hypoxia and proliferation. The impact of Compound II treatment on survival was examined in 6 animals per group. Mice were followed until the animals either died or had to be euthanized due to oversized tumors.

[3] = test system: OCIP51 xenograft tumor initiating cells; assay: Limiting dilution assay for tumor initiating cells (TIC); assay type: in vivo, NOD/SCID mice; details: 52 mg/kg, tumors harvested 12 h after treatment, preliminary results
Method: FIG. 2(C) is a schematic overview of the limiting dilution assay. Briefly, xenograft tumors were grown to a diameter of approximately 1 cm and treated with 52 mg/kg Compound II and tumors harvested 12 h after treatment. Excised tumors were mechanically minced and a single cell suspension prepared using a DNAse, Collagenase and Protease cocktail. A sample of the single cell suspension was stained for mouse CD31-FITC and H2K-FITC to establish the mouse cell content. Cells were counted using a haemocytometer and the human content was calculated. 3-6 dilutions of human cells per sample were injected into the flank of NOD/SCID mice. 3 mice were injected into both flanks per dilution. Tumor take rate was observed over the course of 6 month. Tumor initiating frequency was calculated from using the L-Calc software. […] The remaining 3 xenograft models have been injected for the dilutions.

[4] = test system: PANC-1 cell line; assay: Growth inhibition (GI50) assay, SRB, PANC-1; assay type: cell-based; details: Homo sapiens, 120 h, PANC-1 (KRas mutant, TP53 mutant, CDKN2A homozygous deletion, SMAD4 wild-type), 5 days
Text: (§1) BxPC-3 and PANC-1 cell lines were obtained from American Type Culture Collection (ATCC, Manassas, Va.) and maintained according to the supplier's instructions. Short tandem repeat (STR) profiling was used to verify authenticity of the cell lines. Sixteen STR loci were simultaneously amplified in a multiplex PCR reaction (The Hospital for Sick Children, Toronto, Canada), and the ATCC database was used for comparison, where possible. Cell lines were routinely tested for mycoplasma and used at low passage numbers (<15).
(§2) Cells were seeded at 3000 per 80 μL, into 96-well plates according to cell growth rate 24 hours before compound overlay and cultured at 37° C. and 5% CO2. Compounds were prepared as 10 mM stocks in 100% DMSO. […] After 5 days, cell growth in each well was assessed by the sulforhodamine B (SRB) assay measuring total protein content. […] The SRB was solubilized with 100 μL of 10 mM Tris pH 10.5 per well, and absorbance was read at 570 nm using a SpectraPlus microplate reader (Molecular Devices Corporation). SRB absorbance values were adjusted by subtracting the average of the baseline readings from untreated cells assessed one day after cell seeding. The percentage (%) of relative inhibition of cell growth was calculated by comparing to DMSO-treated cells. GI50s were calculated using GraphPad PRISM software (GraphPad Software Inc., San Diego, Calif.).

[5] = test system: BxPC-3 cell line; assay: Growth inhibition (GI50) assay, SRB, BxPC-3; assay type: cell-based; details: Homo sapiens, 120 h, BxPC-3 (KRas wild-type, TP53 mutant, SMAD4 homozygous deletion), 5 days
Text: as §1, §2

## COc1ccc2c(c1)[C@]1(C[C@H]1c1ccc3c(/C=C/c4ccc(CN5CCOCC5)cc4)n[nH]c3c1)C(=O)N2C [Compound II]
[1]
  Tumor weight at the end of the treatment: reduced tumor weight
[2]; 7.5 mg/kg daily by oral gavage for 21 days, mono-therapy, 6 xenograft models
  Tumor weight after completion of the treatment: significantly reduced tumor weight in 4 of the 6 tested patient-derived pancreatic xenograft models
[2]; OCIP51 (highly hypoxic, fast growing) model, 7.5 mg/kg daily oral, 21 days, vehicle 54 days
  medium survival: 103 days
[2]; mono-therapy for 21 days, responsive models
  overall survival: increase in overall survival in a number of responsive models
[2]; mono-therapy, highly hypoxic versus medium or low hypoxic models, preliminary results
  response to treatment versus tumor hypoxia: strongest response to Compound II as a mono-therapy was observed in highly hypoxic models
[3]
  Number of tumor initiating cells (TICs): reduced the number of TICs in OCIP51
[4]
  GI50: 25 nM
[5]
  GI50: 15 nM
